Measured values from the supplement of paper PMC11061612.

Tests used:
SN-38 = compound: CCc1c2c(nc3ccc(O)cc13)-c1cc3c(c(=O)n1C2)COC(=O)[C@]3(O)CC [SN-38]; settings: max 0.3 µM
How it was run: (§1)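 Plates with 1536 wells received cancer cell lines in 7.5 μl of DMEM/F12 or RPMI containing 10% FBS. After 24 hours at 37°C and 5% CO2, cells were dosed for 72 hours with final DMSO typically 0.2%, and viability was read by CellTiter-Glo 2.0 luminescence scaled between blank-well and DMSO-well means. The single-agent IC50 was taken from a logistic fit of the dose responses made with a non-linear mixed effects model, that logistic curve having two parameters.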

AZD2811 = compound: CCN(CCO)CCCOc1ccc2c(Nc3cc(CC(=O)Nc4cccc(F)c4)[nH]n3)ncnc2c1 [AZD2811]; settings: max 1 µM
How it was run: as §1

AZD0156 = compound: CN(C)CCCOc1ccc(-c2ccc3ncc4c(c3c2)n(C2CCOCC2)c(=O)n4C)cn1 [AZD0156]
How it was run: as §1

AZD7648 = compound: Cc1cc2ncnn2cc1Nc1ncc2c(n1)n(C1CCOCC1)c(=O)n2C [AZD7648]; settings: max 10 µM
How it was run: as §1

Gefitinib = compound: COc1cc2ncnc(Nc3ccc(F)c(Cl)c3)c2cc1OCCCN1CCOCC1 [Gefitinib]; settings: max 10 µM
How it was run: as §1

AZD8186 = compound: C[C@@H](Nc1cc(F)cc(F)c1)c1cc(C(=O)N(C)C)cc2c(=O)cc(N3CCOCC3)oc12 [AZD8186]; settings: max 3 µM
How it was run: as §1

Palbociclib = compound: CC(=O)c1c(C)c2cnc(Nc3ccc(N4CCNCC4)cn3)nc2n(C2CCCC2)c1=O [Palbociclib]; settings: max 10 µM
How it was run: as §1

Trametinib = compound: CC(=O)Nc1cccc(-n2c(=O)n(C3CC3)c(=O)c3c(Nc4ccc(I)cc4F)n(C)c(=O)c(C)c32)c1 [Trametinib]; settings: max 1 µM
How it was run: as §1

Crizotinib = compound: C[C@@H](Oc1cc(-c2cnn(C3CCNCC3)c2)cnc1N)c1c(Cl)ccc(F)c1Cl [Crizotinib]; settings: max 10 µM
How it was run: as §1

AZD5991 = compound: Cc1c2c(nn1C)CSCc1cc(n(C)n1)CSc1cc(c3ccccc3c1)OCCCc1c(C(=O)O)n(C)c3c-2c(Cl)ccc13 [AZD5991]; settings: max 1 µM
How it was run: as §1

Savolitinib = compound: C[C@@H](c1ccc2nccn2c1)n1nnc2ncc(-c3cnn(C)c3)nc21 [Savolitinib]; settings: max 1 µM
How it was run: as §1

Olaparib = compound: O=C(c1cc(Cc2n[nH]c(=O)c3ccccc23)ccc1F)N1CCN(C(=O)C2CC2)CC1 [Olaparib]; settings: max 10 µM
How it was run: as §1

AZD1775 = compound: C=CCn1c(=O)c2cnc(Nc3ccc(N4CCN(C)CC4)cc3)nc2n1-c1cccc(C(C)(C)O)n1 [AZD1775]
How it was run: as §1

AZD5153 = compound: COc1nnc2ccc(N3CCC(c4ccc(OCCN5CCN(C)C(=O)[C@H]5C)cc4)CC3)nn12 [AZD5153]; settings: max 1 µM
How it was run: as §1

AZD4320 = compound: CN(CC[C@H](CSC1=CC=CC=C1)NC2=C(C=C(C=C2)S(=O)(=O)NC(=O)C3=CC=C(C=C3)N4CCC(CC4)[C@H](C5=CC=CC=C5C6=CC=C(C=C6)Cl)O)S(=O)(=O)C(F)(F)F)CCO [AZD4320]; settings: max 1 µM
How it was run: as §1

Venetoclax = compound: CC1(C)CCC(CN2CCN(c3ccc(C(=O)NS(=O)(=O)c4ccc(NCC5CCOCC5)c([N+](=O)[O-])c4)c(Oc4cnc5[nH]ccc5c4)c3)CC2)=C(c2ccc(Cl)cc2)C1 [Venetoclax]; settings: max 1 µM
How it was run: as §1

Lapatinib = compound: CS(=O)(=O)CCNCc1ccc(-c2ccc3ncnc(Nc4ccc(OCc5cccc(F)c5)c(Cl)c4)c3c2)o1 [Lapatinib]; settings: max 10 µM
How it was run: as §1

AZD6738 = compound: C[C@@H]1COCCN1C2=NC(=NC(=C2)C3(CC3)[S@](=N)(=O)C)C4=C5C=CNC5=NC=C4 [AZD6738]; settings: max 10 µM
How it was run: as §1

Doxorubicin = compound: COc1cccc2c1C(=O)c1c(O)c3c(c(O)c1C2=O)C[C@@](O)(C(=O)CO)C[C@@H]3O[C@H]1C[C@H](N)[C@H](O)[C@H](C)O1 [Doxorubicin]; settings: max 1 µM
How it was run: as §1

AZD1390 = compound: CC(C)n1c(=O)n(C)c2cnc3cc(F)c(-c4ccc(OCCCN5CCCCC5)nc4)cc3c21 [AZD1390]; settings: max 0.3 µM
How it was run: as §1

SG3199 = compound: CC1=CN2[C@@H](C1)C=NC3=CC(=C(C=C3C2=O)OC)OCCCCCOC4=C(C=C5C(=C4)N=C[C@@H]6CC(=CN6C5=O)C)OC [SG3199]; settings: max 0.001 µM
How it was run: as §1

Dasatinib = compound: CC1=C(C(=CC=C1)Cl)NC(=O)C2=CN=C(S2)NC3=CC(=NC(=N3)C)N4CCN(CC4)CCO [Dasatinib]; settings: max 2 µM
How it was run: as §1

Taselisib = compound: Cc1nc(-c2cn3c(n2)-c2ccc(-c4cnn(C(C)(C)C(N)=O)c4)cc2OCC3)n(C(C)C)n1 [Taselisib]; settings: max 10 µM
How it was run: as §1

Capivasertib = compound: C1CN(CCC1(C(=O)N[C@@H](CCO)C2=CC=C(C=C2)Cl)N)C3=NC=NC4=C3C=CN4 [Capivasertib]
How it was run: as §1

Alisertib = compound: COc1cc(Nc2ncc3c(n2)-c2ccc(Cl)cc2C(c2c(F)cccc2OC)=NC3)ccc1C(=O)O [Alisertib]; settings: max 10 µM
How it was run: as §1

Prexasertib = compound: COc1cccc(OCCCN)c1-c1cc(Nc2cnc(C#N)cn2)n[nH]1 [Prexasertib]; settings: max 1 µM
How it was run: as §1

Selumetinib = compound: Cn1cnc2c(F)c(Nc3ccc(Br)cc3Cl)c(C(=O)NOCCO)cc21 [Selumetinib]
How it was run: as §1

Row | Cell Line | IC50, cell viability 72 h (SN-38) | IC50, cell viability 72 h (AZD2811) | IC50, cell viability 72 h (AZD0156; max 3 µM) | IC50, cell viability 72 h (AZD7648) | IC50, cell viability 72 h (Gefitinib) | IC50, cell viability 72 h (AZD8186) | IC50, cell viability 72 h (Palbociclib) | IC50, cell viability 72 h (Trametinib) | IC50, cell viability 72 h (Crizotinib) | IC50, cell viability 72 h (AZD5991) | IC50, cell viability 72 h (Savolitinib) | IC50, cell viability 72 h (Olaparib) | IC50, cell viability 72 h (AZD1775; max 3 µM) | IC50, cell viability 72 h (AZD5153) | IC50, cell viability 72 h (AZD4320) | IC50, cell viability 72 h (Venetoclax) | IC50, cell viability 72 h (Lapatinib) | IC50, cell viability 72 h (AZD6738) | IC50, cell viability 72 h (Doxorubicin) | IC50, cell viability 72 h (AZD1390) | IC50, cell viability 72 h (SG3199) | IC50, cell viability 72 h (Dasatinib) | IC50, cell viability 72 h (Taselisib) | IC50, cell viability 72 h (Capivasertib; max 10 µM) | IC50, cell viability 72 h (Alisertib) | IC50, cell viability 72 h (Prexasertib) | IC50, cell viability 72 h (Selumetinib; max 10 µM) | IC50, cell viability 72 h (AZD0156; max 1 µM) | IC50, cell viability 72 h (AZD1775; max 1 µM) | IC50, cell viability 72 h (Capivasertib; max 3 µM) | IC50, cell viability 72 h (Selumetinib; max 3 µM)
1 | EPLC-272H (Other Solid Carcinomas) | 126 nM | > 1000 nM | > 3000 nM | > 10000 nM | 5460 nM | > 3000 nM | > 10000 nM | 22.7 nM | > 10000 nM | 391 nM | > 1000 nM | > 10000 nM | 454 nM | 116 nM | > 1000 nM | > 1000 nM | 5770 nM | 1000 nM | > 1000 nM | > 300 nM | > 1 nM | 148 nM | 256 nM | 1800 nM | > 10000 nM | 8.51 nM | 2280 nM | – | – | – | –
2 | ESO26 (Esophageal Adenocarcinoma) | 223 nM | > 1000 nM | > 3000 nM | > 10000 nM | 4700 nM | > 3000 nM | > 10000 nM | > 1000 nM | > 10000 nM | > 1000 nM | > 1000 nM | > 10000 nM | 1470 nM | 398 nM | > 1000 nM | > 1000 nM | 814 nM | > 10000 nM | > 1000 nM | > 300 nM | > 1 nM | > 2000 nM | 1840 nM | 8590 nM | > 10000 nM | 380 nM | > 10000 nM | – | – | – | –
3 | EW-16 (Ewing's Sarcoma) | 3.19 nM | 837 nM | > 3000 nM | > 10000 nM | > 10000 nM | > 3000 nM | > 10000 nM | > 1000 nM | > 10000 nM | > 1000 nM | > 1000 nM | > 10000 nM | 581 nM | > 1000 nM | > 1000 nM | > 1000 nM | > 10000 nM | > 10000 nM | 71.9 nM | > 300 nM | > 1 nM | > 2000 nM | 5720 nM | > 10000 nM | 2280 nM | 726 nM | > 10000 nM | – | – | – | –
4 | G-402 (Other Solid Carcinomas) | 27 nM | 475 nM | > 3000 nM | > 10000 nM | > 10000 nM | > 3000 nM | > 10000 nM | 563 nM | 7960 nM | 251 nM | > 1000 nM | > 10000 nM | 2700 nM | 98.5 nM | > 1000 nM | > 1000 nM | > 10000 nM | 7010 nM | 123 nM | > 300 nM | > 1 nM | 319 nM | 2420 nM | 8690 nM | 1970 nM | 523 nM | > 10000 nM | – | – | – | –
5 | GA-10 (Burkitt's Lymphoma) | 23.4 nM | 108 nM | > 3000 nM | > 10000 nM | > 10000 nM | 978 nM | 234 nM | > 1000 nM | 2340 nM | 252 nM | > 1000 nM | > 10000 nM | 503 nM | 83.3 nM | > 1000 nM | > 1000 nM | > 10000 nM | 631 nM | 369 nM | > 300 nM | > 1 nM | 166 nM | 845 nM | 1480 nM | 147 nM | 9.18 nM | > 10000 nM | – | – | – | –
6 | GCT (Other Solid Carcinomas) | 43.5 nM | > 1000 nM | > 3000 nM | > 10000 nM | > 10000 nM | > 3000 nM | > 10000 nM | 846 nM | > 10000 nM | > 1000 nM | > 1000 nM | > 10000 nM | > 3000 nM | 603 nM | > 1000 nM | > 1000 nM | > 10000 nM | > 10000 nM | > 1000 nM | > 300 nM | > 1 nM | 703 nM | 8270 nM | 6420 nM | > 10000 nM | > 1000 nM | > 10000 nM | – | – | – | –
7 | HT55 (Colorectal Carcinoma) | > 300 nM | > 1000 nM | > 3000 nM | > 10000 nM | > 10000 nM | > 3000 nM | 9650 nM | 30.1 nM | > 10000 nM | > 1000 nM | > 1000 nM | > 10000 nM | 659 nM | 646 nM | > 1000 nM | > 1000 nM | 1750 nM | > 10000 nM | > 1000 nM | > 300 nM | > 1 nM | > 2000 nM | 753 nM | > 10000 nM | > 10000 nM | 268 nM | 1150 nM | – | – | – | –
8 | TE-10 (Esophageal Squamous Cell Carcinoma) | 37.1 nM | > 1000 nM | – | > 10000 nM | – | > 3000 nM | – | 825 nM | – | 290 nM | – | > 10000 nM | – | – | > 1000 nM | > 1000 nM | – | 1600 nM | 820 nM | – | > 1 nM | – | 941 nM | – | 2930 nM | 11.9 nM | – | > 1000 nM | 381 nM | > 3000 nM | > 3000 nM
